The text below walks through data of patent US10548898B2, “Quinazoline compounds” (Gilead Sciences, Inc., priority 2014, dated 2020).

Format in all cases: cell-based
One test relates to HIV-1 HBX2 (wild type). The test is described as follows: High throughput cytopathic effect assay in MT-4 cells, wild type HIV-1. From the text:
(§1) Compounds were screened in a miniaturized, high throughput cytopathic effect assay for activity against HIV-1 HBX2 (wild type) and HIV-1 reverse transcriptase mutants K103N and Y181C. In Tables 1 and 2 below. “w.t.” refers to results of the tested compounds run with the wildtype 1 and “w.t, assay 2” refers results of the tested compounds run with the wildtype on the same day as the testing of the compounds with the mutants. Thus, “w.t, assay 2” was run under the same conditions as the testing of the compounds with the mutants and provides a direct comparison with the results from the testing with the mutants.
(§2) Ten-point serial dilutions of compounds with half-log step size were generated in DMSO. AZT ([…]) was used as the positive control and DMSO as the negative control. The Echo acoustic dispenser was used to deliver 200 nL of serially diluted compound into sterile 384 well tissue culture assay plates. Two million MT-4 cells were incubated with each of the 3 viruses at MOI of 0.0005 in separate 1 mL infection tubes for 1 hour at 37° C. The cells were diluted in cell culture medium (RPMI+10% FBS) to 50.000 cells/mL. The infected cells were added to 384 well assay plates containing serially dilute compounds. Assay plates were incubated for 5 days in a humidified incubator set at 37° C. and 5% CO2. To measure the cytopathic effect of HIV, 40 μL Cell TiterGlo was added to each well and the resulting luminescence signal is read with the Envision plate reader (Perkin Elmer). Data were normalized to positive and negative controls in each plate and expressed as % CPE Protection. EC50 values were defined as the compound concentration that caused a 50% decrease in luminescence signal, and were calculated by non-linear regression using Pipeline Pilot software by applying a four parameter fit equation (Accelrys, San Diego, Calif.).
(In general: Damage to the host cells serves as the signal in cytopathic effect assays.)

Test [1] relates to HIV-1 reverse transcriptase mutant Y181C. The test is described as follows: High throughput cytopathic effect assay in MT-4 cells, Y181C mutant. As to conditions: for EC50: Human immunodeficiency virus 1, MT4, 120 h, read-out: MT4 EC50 (nM) against Y181C; for FC against mutant Y181C: fold change of MT4 EC50 versus w.t. assay 2.
Description: as §1, §2

Test [2] deals with HIV-1 reverse transcriptase mutant K103N. The test is described as follows: High throughput cytopathic effect assay in MT-4 cells, K103N mutant. The settings on record: for EC50: Human immunodeficiency virus 1, MT4, 120 h, read-out: MT4 EC50 (nM) against K103N; for FC against mutant K103N: fold change of MT4 EC50 versus w.t. assay 2.
Description: as §1, §2

Setting [3] is: Human immunodeficiency virus 1, MT4, 120 h, MT-4 cells, 5 days, cytopathic effect, Cell TiterGlo, read-out: MT4 EC50 (nM) against w.t.
Where [4] appears, read: Human immunodeficiency virus 1, MT4, read-out: MT4 EC50 (nM) against w.t. assay 2.

Read-outs that look alike come from different tables or passages of the source.

Broadly, the EC50 is the concentration giving half of the maximal effect. With `Cc1cc(Nc2nc(N)c3cccc(-c4c(C)cc(/C=C/C#N)cc4C)c3n2)nc(C)c1C#N` [Compound 15, (E)-6-((4-Amino-8-(4-(2-cyanovinyl)-2,6-dimethylphenyl)quinazolin-2-yl)amino)-2,4-dimethylnicotinonitrile], the EC50 with HIV-1 HBX2 (wild type) (setting [3]) came to 22.6 nM; with HIV-1 HBX2 (wild type) (setting [4]), 33.2 nM; in test [1] it was 180 nM; in test [2], 72.2 nM. Further, the “FC against mutant Y181C” value in test [1] was determined as 5.4. The “FC against mutant K103N” value in test [2] amounted to 2.2.
Turning to `Cc1cc(/C=C/C#N)cc(C)c1-c1cccc2c(NC(N)=O)nc(Nc3ccc(C#N)cc3)nc12` [Compound 37, (E)-1-(2-((4-Cyanophenyl)amino)-8-(4-(2-cyanovinyl)-2,6-dimethylphenyl)quinazolin-4-yl)urea], the EC50 with HIV-1 HBX2 (wild type) (setting [3]) was 4.7 nM; with HIV-1 HBX2 (wild type) (setting [4]), 6.8 nM; in test [1], 22.1 nM; in test [2] it was 7.8 nM. Also, the “FC against mutant Y181C” value in test [1] is on record as 3.3. The “FC against mutant K103N” value in test [2] was 1.2.
For `CNc1nc(Nc2ccc(C#N)cc2)nc2c(-c3c(C)cc(/C=C/C#N)cc3C)cccc12` [Compound 30, (E)-4-((8-(4-(2-Cyanovinyl)-2,6-dimethylphenyl)-4-(methylamino)quinazolin-2-yl)amino)benzonitrile], the EC50 in the test with HIV-1 HBX2 (wild type) (setting [3]) was 15.9 nM; in the test with HIV-1 HBX2 (wild type) (setting [4]), 13 nM; in test [1], 55.6 nM; in test [2], 17 nM. Moreover, the “FC against mutant Y181C” value in test [1] was found to be 4.3. The “FC against mutant K103N” value in test [2] stood at 1.3.
Consider `Cc1cc(Nc2nc(N)c3cccc(-c4c(C)cc(/C=C/C#N)cc4C)c3n2)ncc1C#N` [Compound 18, (E)-6-((4-Amino-8-(4-(2-cyanovinyl)-2,6-dimethylphenyl)quinazolin-2-yl)amino)-4-methylnicotinonitrile], for which the EC50 with HIV-1 HBX2 (wild type) (setting [3]) came out at 21.9 nM; in the test with HIV-1 HBX2 (wild type) (setting [4]), 13.1 nM; in test [1], 112 nM; in test [2] it was 12.1 nM. The “FC against mutant Y181C” value in test [1] was determined as 8.6. In addition, the “FC against mutant K103N” value in test [2] turned out to be 0.9.
As to `Cc1cc(-c2c(C)cc(/C=C/C#N)cc2C)c2nc(Nc3ccc(C#N)cn3)nc(N)c2c1` [Compound 21, (E)-6-((4-Amino-8-(4-(2-cyanovinyl)-2,6-dimethylphenyl)-6-methylquinazolin-2-yl)amino)nicotinonitrile], the EC50 in the test on HIV-1 HBX2 (wild type) (setting [3]) stood at 10.1 nM; in the test with HIV-1 HBX2 (wild type) (setting [4]) it was 10.6 nM; in test [1] it was 187 nM; in test [2], 10.8 nM. Further, the “FC against mutant Y181C” value in test [1] is given as 17.6. Further, in test [2], the “FC against mutant K103N” value worked out at 1.0.
Take `CCCCNc1nc(Nc2ccc(C#N)cc2)nc2c(-c3c(C)cc(/C=C/C#N)cc3C)cccc12` [Compound 7, (E)-4-((4-(Butylamino)-8-(4-(2-cyanovinyl)-2,6-dimethylphenyl)quinazolin-2-yl)amino)benzonitrile]: the EC50 was 122 nM in the test on HIV-1 HBX2 (wild type) (setting [3]), 117 nM in the test with HIV-1 HBX2 (wild type) (setting [4]), more than 500 nM in test [1] and 130 nM in test [2]. Besides, the “FC against mutant Y181C” value in test [1] is more than 4.3. Moreover, the “FC against mutant K103N” value in test [2] was determined as 1.1.
`Cc1cc(/C=C/C#N)cc(C)c1-c1cc(F)cc2c(N)nc(Nc3ccc(C#N)cn3)nc12` [Compound 20, (E)-6-((4-Amino-8-(4-(2-cyanovinyl)-2,6-dimethylphenyl)-6-fluoroquinazolin-2-yl)amino)nicotinonitrile]: the EC50 with HIV-1 HBX2 (wild type) (setting [3]) stood at 7 nM; in the test with HIV-1 HBX2 (wild type) (setting [4]), 6.6 nM; in test [1], 69.9 nM; in test [2], 7.1 nM. For the same molecule, in test [1], the “FC against mutant Y181C” value worked out at 10.5. In addition, the “FC against mutant K103N” value in test [2] came out at 1.1.
For `Cc1cc(C#N)cnc1Nc1nc(N)c2cccc(-c3c(C)cc(/C=C/C#N)cc3C)c2n1` [Compound 17, (E)-6-((4-Amino-8-(4-(2-cyanovinyl)-2,6-dimethylphenyl)quinazolin-2-yl)amino)-5-methylnicotinonitrile], the EC50 with HIV-1 HBX2 (wild type) (setting [3]) was 229 nM; in the test on HIV-1 HBX2 (wild type) (setting [4]) it was 190 nM; in test [1], more than 500 nM; in test [2] it was 151 nM. Also, the “FC against mutant Y181C” value in test [1] is recorded as more than 2.6. Also, the “FC against mutant K103N” value in test [2] is 0.8.
In the case of `Cc1cc(/C=C/C#N)cc(C)c1-c1cc(Cl)cc2c(N)nc(Nc3ccc(C#N)cc3)nc12` [Compound 19, (E)-4-((4-Amino-6-chloro-8-(4-(2-cyanovinyl)-2,6-dimethylphenyl)quinazolin-2-yl)amino)benzonitrile], the EC50 in the test on HIV-1 HBX2 (wild type) (setting [3]) is 27.5 nM; with HIV-1 HBX2 (wild type) (setting [4]) it was 29 nM; in test [1], 79.7 nM; in test [2], 30.3 nM. In addition, in test [1], the “FC against mutant Y181C” value was 2.7. Further, in test [2], the “FC against mutant K103N” value was 1.0.
Regarding `Cc1cc(/C=C/C#N)cc(C)c1-c1cccc2c(NCC3CC3)nc(Nc3ccc(C#N)cc3)nc12` [Compound 6, (E)-4-((8-(4-(2-Cyanovinyl)-2,6-dimethylphenyl)-4-((cyclopropylmethyl)amino)quinazolin-2-yl)amino)benzonitrile], the EC50 came out at 99.3 nM with HIV-1 HBX2 (wild type) (setting [3]), 82.6 nM with HIV-1 HBX2 (wild type) (setting [4]), 470 nM in test [1] and 81.1 nM in test [2]. For the same molecule, the “FC against mutant Y181C” value in test [1] is 5.7. Besides, the “FC against mutant K103N” value in test [2] is 1.0.
`Cc1cc(/C=C/C#N)cc(C)c1-c1cccc2c(=O)[nH]c(Nc3ccc(C#N)cc3)nc12` [Compound 41, (E)-4-((8-(4-(2-Cyanovinyl)-2,6-dimethylphenyl)-4-oxo-3,4-dihydroquinazolin-2-yl)amino)benzonitrile]: the EC50 with HIV-1 HBX2 (wild type) (setting [3]) turned out to be 6.3 nM; with HIV-1 HBX2 (wild type) (setting [4]), 9.5 nM; in test [1] it was 32.8 nM; in test [2], 15.7 nM. For the same molecule, the “FC against mutant Y181C” value in test [1] was 3.4. For the same molecule, the “FC against mutant K103N” value in test [2] is 1.6.
Consider `COc1cc(/C=C/C#N)cc(OC)c1-c1cccc2cnc(Nc3ccc(C#N)cc3)nc12` [Compound 33, (E)-44-((8-(4-(2-Cyanovinyl)-2,6-dimethoxyphenyl)quinazolin-2-yl)amino)benzonitrile], for which the EC50 with HIV-1 HBX2 (wild type) (setting [3]) came out at 2.1 nM; in the test on HIV-1 HBX2 (wild type) (setting [4]), 1.5 nM; in test [1], 12.3 nM; in test [2], 3.2 nM. The “FC against mutant Y181C” value in test [1] is reported as 7.9. In addition, the “FC against mutant K103N” value in test [2] was found to be 2.1.
With `Cc1cc(/C=C/C#N)cc(C)c1-c1cc(F)cc2c(N)nc(Nc3ccc(C#N)nn3)nc12` [Compound 27, (E)-6-((4-Amino-8-(4-(2-cyanovinyl)-2,6-dimethylphenyl)-6-fluoroquinazolin-2-yl)amino)pyridazine-3-carbonitrile], the EC50 in the test on HIV-1 HBX2 (wild type) (setting [3]) was determined as 6.3 nM; with HIV-1 HBX2 (wild type) (setting [4]) it was 3.8 nM; in test [1], 400 nM; in test [2], 5.3 nM. The “FC against mutant Y181C” value in test [1] was found to be 105.9. In test [2], the “FC against mutant K103N” value is recorded as 1.4.
